PMC12153338, “Resistance to oxyimino-cephalosporins conferred by an alternative mechanism of hydrolysis by the Acinetobacter-derived cephalosporinase-33 (ADC-33), a class C β-lactamase present in carbapenem-resistant Acinetobacter baumannii (CRAb)” (mBio, 2025)
In brackets after ≈: the same amount, converted by molar mass.

Legend:
Format in all cases: cell-based
[1] = system: ADC-7 in DH10B Escherichia coli; test: MIC by broth microdilution, ADC-7 in DH10B E. coli; conditions: DH10B E. coli expressing ADC-7 (non-Adup) from pBCSK−, FDC in iron-depleted cation-adjusted MH broth, mode of triplicate
Method: (§1) Susceptibility testing to standard antibiotics was performed by broth microdilution according to 2024 Clinical and Laboratory Standards Institute (CLSI) guidelines ([38]). MICs for FDC were done in iron-depleted cation-adjusted Mueller-Hinton (MH) broth according to CLSI methods. All MICs were interpreted according to the 2024 CLSI guidelines ([38]). MICs are done in triplicate, and the mode MIC value is reported.
(§2) blaADC-7 pBCSK− was cloned and expressed in E. coli DH10B cells as previously described for MIC determinations ([3]). The pBCSK-non-inducible phagemid vector has a chloramphenicol resistance gene used to aid selection. All other blaADC variants were synthesized by GenScript according to the blaADC-7 pBCSK− strategy, cloning into the XbaI/BamHI sites of the pBCSK− vector ([5]).

[2] = system: ADC-30 in DH10B Escherichia coli; test: MIC by broth microdilution, ADC-30 in DH10B E. coli; conditions: DH10B E. coli expressing ADC-30 (non-Adup) from pBCSK−, FDC in iron-depleted cation-adjusted MH broth, mode of triplicate
Method: as §1, §2

[3] = system: ADC-73 in DH10B Escherichia coli; test: MIC by broth microdilution, ADC-73 in DH10B E. coli; conditions: DH10B E. coli expressing ADC-73 (non-Adup) from pBCSK−, FDC in iron-depleted cation-adjusted MH broth, mode of triplicate
Method: as §1, §2

[4] = system: ADC-143 in DH10B Escherichia coli; test: MIC by broth microdilution, ADC-143 in DH10B E. coli; conditions: DH10B E. coli expressing ADC-143 (non-Adup) from pBCSK−, FDC in iron-depleted cation-adjusted MH broth, mode of triplicate
Method: as §1, §2

[5] = system: ADC-217 in DH10B Escherichia coli; test: MIC by broth microdilution, ADC-217 in DH10B E. coli; conditions: DH10B E. coli expressing ADC-217 (non-Adup) from pBCSK−, FDC in iron-depleted cation-adjusted MH broth, mode of triplicate
Method: as §1, §2

[6] = system: ADC-33 in DH10B Escherichia coli; test: MIC by broth microdilution, ADC-33 in DH10B E. coli; conditions: DH10B E. coli expressing ADC-33 (Adup) from pBCSK−, FDC in iron-depleted cation-adjusted MH broth, mode of triplicate
Method: as §1, §2

[7] = system: ADC-172 in DH10B Escherichia coli; test: MIC by broth microdilution, ADC-172 in DH10B E. coli; conditions: Escherichia coli; DH10B E. coli expressing ADC-172 (Adup) from pBCSK−; FDC in iron-depleted cation-adjusted MH broth; mode of triplicate; read-out: MIC
Method: as §1, §2

[8] = system: ADC-218 in DH10B Escherichia coli; test: MIC by broth microdilution, ADC-218 in DH10B E. coli; conditions: DH10B E. coli expressing ADC-218 (Adup) from pBCSK−, FDC in iron-depleted cation-adjusted MH broth, mode of triplicate
Method: as §1, §2

[9] = system: ADC-219 in DH10B Escherichia coli; test: MIC by broth microdilution, ADC-219 in DH10B E. coli; conditions: DH10B E. coli expressing ADC-219 (Adup) from pBCSK−, FDC in iron-depleted cation-adjusted MH broth, mode of triplicate
Method: as §1, §2

[10] = system: DH10B Escherichia coli pBCSK− no insert; test: MIC by broth microdilution, DH10B E. coli with pBCSK− no insert; conditions: DH10B E. coli with pBCSK− no insert (control strain), FDC in iron-depleted cation-adjusted MH broth
Method: as §1, §2

DH10B alone = test: MIC by broth microdilution, DH10B alone; conditions: Escherichia coli; DH10B alone (control strain); FDC in iron-depleted cation-adjusted MH broth
Method: as §1, §2

[11] = system: ADC variants in DH10B Escherichia coli; test: MIC, statements across ADC variants in E. coli
Method: as §1, §2

Structure (SMILES) | MIC [1] | MIC [2] | MIC [3] | MIC [4] | MIC [5] | MIC [6] | MIC [7] | MIC [8] | MIC [9] | MIC [10] | MIC (DH10B alone) | MIC [11]
C[C@H]1[C@H](NC(=O)/C(=N\OC(C)(C)C(=O)O)c2csc(N)n2)C(=O)N1S(=O)(=O)O [ATM, aztreonam] | 8 µg/mL (≈ 18.4 µM) | 8 µg/mL (≈ 18.4 µM) | 2 µg/mL (≈ 4.59 µM) | 16 µg/mL (≈ 36.7 µM) | 8 µg/mL (≈ 18.4 µM) | 64 µg/mL (≈ 147 µM) | 32 µg/mL (≈ 73.5 µM) | 256 µg/mL (≈ 588 µM) | 32 µg/mL (≈ 73.5 µM) | 0.12 µg/mL (≈ 0.276 µM) | 0.25 µg/mL (≈ 0.574 µM) | –
CC(=O)OCC1=C(C(=O)O)N2C(=O)[C@@H](NC(=O)Cc3cccs3)[C@H]2SC1 [CEF, cephalothin] | 4100 µg/mL (≈ 10300 µM) | 4100 µg/mL (≈ 10300 µM) | 2050 µg/mL (≈ 5170 µM) | 2050 µg/mL (≈ 5170 µM) | 2050 µg/mL (≈ 5170 µM) | 2050 µg/mL (≈ 5170 µM) | 2050 µg/mL (≈ 5170 µM) | 2050 µg/mL (≈ 5170 µM) | 1020 µg/mL (≈ 2580 µM) | 8 µg/mL (≈ 20.2 µM) | 16 µg/mL (≈ 40.4 µM) | –
Cn1c(N)c(NC(=O)NCCN)c[n+]1CC1=C(C(=O)O)N2C(=O)[C@@H](NC(=O)/C(=N\OC(C)(C)C(=O)[O-])c3nsc(N)n3)[C@H]2SC1 [TOL, ceftolozane] | 8 µg/mL (≈ 12 µM) | 4 µg/mL (≈ 6 µM) | 2 µg/mL (≈ 3 µM) | 16 µg/mL (≈ 24 µM) | 16 µg/mL (≈ 24 µM) | 512 µg/mL (≈ 768 µM) | 512 µg/mL (≈ 768 µM) | 512 µg/mL (≈ 768 µM) | 128 µg/mL (≈ 192 µM) | 0.5 µg/mL (≈ 0.75 µM) | 0.5 µg/mL (≈ 0.75 µM) | ≥ 512 µg/mL
